Measured values from PMC4222501, “Synthetic organotelluride compounds induce the reversal of Pdr5p mediated fluconazole resistance in Saccharomyces cerevisiae” (BMC Microbiology, 2014).

Target: T1, Pdr5p (Saccharomyces cerevisiae, UniProt P33302)
T1 construct: gene PDR5; Pdr5p-enriched plasma membranes from strain AD124567
Test: ATPase activity (Pi release) in Pdr5p-enriched plasma membranes, Pdr5p-null membranes subtracted
Format: biochemical

T1 sequence (P33302 whole entry): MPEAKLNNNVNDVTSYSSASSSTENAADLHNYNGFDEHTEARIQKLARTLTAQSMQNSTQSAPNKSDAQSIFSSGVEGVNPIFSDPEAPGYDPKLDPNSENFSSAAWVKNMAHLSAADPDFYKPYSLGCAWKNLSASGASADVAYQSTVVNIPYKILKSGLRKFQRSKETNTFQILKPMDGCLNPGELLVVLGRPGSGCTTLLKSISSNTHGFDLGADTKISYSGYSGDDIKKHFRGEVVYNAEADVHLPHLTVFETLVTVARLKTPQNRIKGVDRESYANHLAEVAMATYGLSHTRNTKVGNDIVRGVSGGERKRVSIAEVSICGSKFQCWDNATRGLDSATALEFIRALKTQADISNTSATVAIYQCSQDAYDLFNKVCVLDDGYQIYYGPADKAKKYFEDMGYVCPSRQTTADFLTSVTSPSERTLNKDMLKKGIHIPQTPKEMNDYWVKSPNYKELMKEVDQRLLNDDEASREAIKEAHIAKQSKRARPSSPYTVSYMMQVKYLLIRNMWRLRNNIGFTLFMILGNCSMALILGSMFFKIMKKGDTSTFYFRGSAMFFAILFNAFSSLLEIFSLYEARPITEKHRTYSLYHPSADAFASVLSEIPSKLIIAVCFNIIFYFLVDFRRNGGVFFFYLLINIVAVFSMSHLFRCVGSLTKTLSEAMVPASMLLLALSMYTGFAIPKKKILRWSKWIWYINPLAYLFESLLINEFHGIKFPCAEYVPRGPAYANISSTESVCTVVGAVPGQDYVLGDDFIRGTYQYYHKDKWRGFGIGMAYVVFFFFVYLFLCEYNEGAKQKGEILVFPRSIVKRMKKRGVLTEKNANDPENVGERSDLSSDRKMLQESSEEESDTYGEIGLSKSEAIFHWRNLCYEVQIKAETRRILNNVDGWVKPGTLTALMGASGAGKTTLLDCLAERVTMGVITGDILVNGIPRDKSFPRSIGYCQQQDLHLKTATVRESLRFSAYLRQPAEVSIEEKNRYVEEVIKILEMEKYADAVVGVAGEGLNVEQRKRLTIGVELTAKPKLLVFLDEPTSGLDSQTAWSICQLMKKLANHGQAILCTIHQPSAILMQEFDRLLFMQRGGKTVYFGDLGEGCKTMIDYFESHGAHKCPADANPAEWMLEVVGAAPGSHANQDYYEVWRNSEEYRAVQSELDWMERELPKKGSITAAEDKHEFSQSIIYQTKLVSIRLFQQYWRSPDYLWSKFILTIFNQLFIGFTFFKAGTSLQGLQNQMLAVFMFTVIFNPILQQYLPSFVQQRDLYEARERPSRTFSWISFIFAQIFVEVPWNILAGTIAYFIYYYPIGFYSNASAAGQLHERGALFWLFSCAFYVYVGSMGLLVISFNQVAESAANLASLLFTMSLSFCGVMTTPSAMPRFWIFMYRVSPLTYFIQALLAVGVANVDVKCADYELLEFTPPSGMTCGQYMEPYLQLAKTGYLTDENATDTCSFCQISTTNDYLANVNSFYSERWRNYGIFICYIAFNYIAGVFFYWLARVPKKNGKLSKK

| SMILES | IC50 [nM] |
| --- | --- |
| CCCC[Te]CCCNC(=O)OC(C)(C)C [compound 1] | 1140 ± 210 |
| CCCC[Te]CCCNC(=O)c1ccccc1 [compound 2] | 1450 ± 490 |
| CCCC[Te]CCCCNC(=O)c1ccccc1 [compound 3] | 1740 ± 910 |
| CCCC[Te]CCCCCNC(=O)c1ccccc1 [compound 5] | 1480 ± 320 |
